This passage reports melting point results from a melting point compilation (Tetko et al.; mined from patent text by program, amines drawn as free bases though some values may be those of a salt).

Regarding `CCCc1c(OCCOCCOc2c(C(C)=O)ccc(OCCCCCC(=O)O)c2CCC)ccc(C(C)=O)c1O`, the melting point fell in the range of 55 to 57 °C.

In the case of `CC1=N/C(=C\c2cccnc2)C(=O)O1`, the melting point is 173 °C.

For the compound `O=C(O)CCc1c(C=C2C(=O)Nc3ccc(Br)cc32)[nH]c2c1CCCC2`, the melting point lay within 286 to 289 °C.

As to `CCOC(=O)N1CCN(c2nc3cccccc-3n2)CC1`, the melting point lay within 136 to 138 °C.

Compound `CCCC[C@]1(CC)CS(=O)(=O)c2cc(OC)c(OC)cc2[C@@H](c2ccccc2)N1O` came in with a melting point of 174 to 175 °C.

With `O=C(Nc1ccccc1)C(Br)(Br)Br`, the melting point was in the range of 97 to 98 °C.

With `O=C1SCc2c(Cl)c(Cl)c(Cl)c(Cl)c21`, the melting point was 181 to 183 °C.

Take `CCOc1ccc2[nH]c3c(c2c1)C[C@@]1(C)C(=O)N(CCBr)C(=O)N1[C@@H]3c1cccc(O)c1` (racemic): the melting point fell in the range of 250 to 252 °C.

In turn, `O=C(O)c1ccc2occ(-c3ccccc3)c2c1` came in with a melting point of 205 to 209 °C.

In turn, `CCCCc1nc2c(N)nc3cc(Br)ccc3c2n1CC(C)C` came in with a melting point of 198 to 200 °C.

Take `CCOC(=O)/C(=N\O[C@H]1CC[C@H](C)CC1)c1csc(N)n1`: the melting point was in the range of 133 to 135 °C.

As to `CCOc1nc2c(nc1C(=O)Cl)c(C)nn2CC`, the melting point is 109 to 111 °C.

For `NC(=O)CCCN1C(=O)c2ccccc2C1=O`, the melting point fell in the range of 160 to 162 °C.

In the case of `COc1ccc(OC(N)=O)cc1`, the melting point is greater than 300 °C.

As for `CCOC(=O)CC(=O)N(C)c1ccc(Cl)cc1[N+](=O)[O-]`, the melting point is 45 to 47 °C.

`C=CCNC(=O)ON=C1CCOc2ccccc21` came in with a melting point of 83 to 86 °C.

On to `CN(Cc1ccc(NC(=O)C2=Cc3cc(-c4ccc(C(F)(F)F)cc4)ccc3OCC2)cc1)C1CCOCC1`, for which the melting point fell in the range of 205 to 209 °C.

For `CCOC(=O)c1ccc(OCc2ccccc2)c(OC)c1`, the melting point was in the range of 72 to 74 °C.

For `COc1ccc(C(=O)Nc2ccc(C)cc2)cc1N`, the melting point was in the range of 190 to 194 °C.

For `CC1(C)c2ccccc2Oc2ncccc21`, the melting point lay within 72 to 73 °C.

Regarding `CN(C)c1ccc(C(=O)C#Cc2ccncc2)cc1`, the melting point lay within 143 to 145 °C.

For `Cc1c(NCC(C)(C)CNCC(O)COc2ccccc2)n(C)c(=O)n(C)c1=O` (stereo not given), the melting point is 111 to 112 °C.

The compound `O=c1ccn(-c2ccc3c(c2)Cc2cc(=O)[nH]nc2-3)cc1` had a melting point greater than 300 °C.

The compound `CC(C)(c1ccc(Oc2cccc3c2C(=O)NC3=O)cc1)c1ccc(Oc2cccc3c2C(=O)NC3=O)cc1` displayed a melting point of 258 to 260 °C.

For the compound `CCCCC(=O)Nc1ccc(C(F)(F)F)c(-n2nc(CCCC)n(Cc3ccc(-c4ccccc4S(=O)(=O)NC(=O)c4ccccc4Cl)cc3F)c2=O)c1`, the melting point is 145 to 147 °C.

Compound `Cc1cccc(-c2n[nH]cc2-c2ccc(F)c(-c3ccc(C(C)(C)O)cn3)c2)n1` came in with a melting point of 169 to 172 °C.

`Nc1ccnc(CCCCCN2C(=O)c3ccccc3C2=O)n1` displayed a melting point of 101 to 104 °C.

On to `O=C(O)c1cccc(-c2ccccc2F)c1`, for which the melting point lay in the range of 147 to 148 °C.

The compound `COc1ccc(N2c3ccccc3Sc3ccccc32)cc1` came in with a melting point of 173 to 176 °C.

For the compound `COC(=O)c1ccc2cc(OCc3cccc(COc4ccc5cc(C(=O)OC)ccc5c4)c3)ccc2c1`, the melting point was 177 to 178 °C.

Consider `O=[N+]([O-])c1cccc(Cl)c1NCc1ccccc1Cl`, for which the melting point lay in the range of 69 to 71 °C.

With `O=c1cc(-c2ccccc2F)oc(N2CCOCC2)c1`, the melting point fell in the range of 137 to 138 °C.

`O=C(c1ccc(O)cc1)c1c(-c2ccccc2)cc2ccccn12` yielded a melting point of 179 °C.

On to `c1ccc2cc(Cc3ncc(-c4ccc5cc(OCc6nnn[nH]6)ccc5c4)o3)ccc2c1`, for which the melting point was in the range of 179 to 182 °C.

For the compound `CC(C)(C)Nc1c(NCc2cccc(F)c2)c(=O)c1=O`, the melting point was 295 to 297 °C.

Consider `CN1C(=O)C(C2=COc3ccccc3O2)=C(c2cn(C(=O)OC(C)(C)C)c3ccc(OCc4ccccc4)cc23)C1=O`, for which the melting point worked out at 93 °C.

In turn, `COc1ccc(CNc2nc(CN3CCC(C(=O)O)CC3)nc3oc4c(c23)CCCC4)cc1Cl` yielded a melting point of 233 to 235 °C.

As to `CCOC(=O)c1c(-c2ccccc2)c(Cc2cccc(F)c2C)cn1N`, the melting point lay within 87 to 88 °C.

`CC1CC(=O)NN=C1c1ccc(N2CCC(CN3C(=O)c4ccccc4C3=O)CC2)c([N+](=O)[O-])c1` (stereo not given) returned a melting point of 256 to 258 °C.

On to `CCN(C)C(=O)C(C)n1cc(C)c(-c2ccccc2)n1` (stereo not given), for which the melting point lay within 59 to 61 °C.

For the compound `CC1(C)Oc2ccncc2[C@@H](N2CCCC2=O)[C@@H]1O` (relative stereo), the melting point came to 253 °C.

`CCc1nc2c([nH]1)c(=S)n(CC)c(=O)n2CC(C)CC` (stereo not given) came in with a melting point of 115 to 117 °C.

Take `CCn1ncc2c1ncc1c(OCCC(C)C)nc3cc(C)nn3c12`: the melting point lay in the range of 60 to 62 °C.

The compound `Cc1cnc2n1-c1ccc(Cl)cc1C(c1ccccc1Cl)=NC2` showed a melting point of 148 to 149 °C.

As for `COc1ccc(C(=O)Nc2ccccc2)cc1Nc1ccc(C)cc1`, the melting point lay within 187 to 188 °C.

Regarding `N#Cc1cccc(-c2ccccc2O)c1`, the melting point lay within 120 to 123 °C.

As to `CCCCN1C(=O)c2c(ncn2C)N2CCN=C12`, the melting point was 122 to 124 °C.

For the compound `CCc1ccc(CCOc2ccc(CC(N)C(=O)O)cc2)nc1` (stereo not given), the melting point was 214 to 221 °C.

`CCOC(=O)c1ccc(-c2cc3c(NCc4ccc(OC)nc4)ncnc3[nH]2)cc1` yielded a melting point of 305 °C.

`O=C(O)c1cn(Cc2cnsn2)c2c(F)c(F)c(F)cc2c1=O` registered a melting point of 220 to 222 °C.

On to `CN1CCC(c2cccc(F)c2)(C(C)(C)O)CC1`, for which the melting point lay in the range of 158 to 159 °C.

Take `COc1ccc(CN(C)CCCSc2ccc(NC(=O)c3cccc4c(=O)c5cccc(F)c5[nH]c34)cc2)cc1OC`: the melting point lay in the range of 120 to 130 °C.

In the case of `O=C1CCc2cc(-c3cccc(Cl)c3)ccc21`, the melting point stood at 113 °C.

The compound `O=C(c1ccc(F)cc1O)C1CC1` registered a melting point of 58 °C.

For `Cc1ncccc1NC(=NC#N)NC(NC(=O)CCCc1cccs1)C(C)(C)C` (stereo not given), the melting point lay within 66 to 68 °C.

For `COc1ccc(-c2nc(-c3ccccc3)c(-c3ccncc3)n2C)cc1`, the melting point was in the range of 193 to 194 °C.

For `COC(=O)CON1C(=O)c2ccccc2C1=O`, the melting point was in the range of 137 to 142 °C.

Consider `Cc1ccc(S(=O)(=O)C(CCl)Sc2ccc(Br)cc2)cc1` (stereo not given), for which the melting point was 82.5 to 84 °C.

`Cc1ccnc2c1C(=O)CC(c1ccccc1Br)C2` (stereo not given): the melting point fell in the range of 106 to 107 °C.

`Clc1ccc(/C=C/C2=CCN(Cc3ccc(Cl)cc3)CC2)cc1` had a melting point of 127 °C.

`Cn1c(C(F)(F)F)cc(=O)n(-c2ccc3snc(C4SCCS4)c3c2)c1=O` showed a melting point of 227 to 232 °C.

As to `CC(C)c1ccc(-c2cc(-c3cccc(C(=O)O)c3)cs2)cc1`, the melting point was 208 to 209 °C.

The compound `CNC(=O)ON=C1OCCOC1(C)C` gave a melting point of 144 to 146 °C.

As for `CC(C)c1c(C=C(Cl)Cl)c(-c2ccc(F)cc2)c2n1CCCC2`, the melting point fell in the range of 118 to 120 °C.

For `CCCNC(=NC#N)Nc1cccnc1`, the melting point fell in the range of 164 to 165 °C.

For `O=C(CCc1ccc(Cl)cc1Cl)NC1CC(=O)c2ccccc2NC1=O` (stereo not given), the melting point was in the range of 234 to 236 °C.

Regarding `CCc1cc(Oc2ccc(S(C)(=O)=O)nc2)cc2cc(C3=NCC(CC(=O)O)S3)[nH]c12` (stereo not given), the melting point was 230 to 232 °C.

Consider `CN(C)C(=O)c1ccc2ccccc2c1-c1ccccc1`, for which the melting point lay in the range of 86 to 87 °C.

`O=c1oc(-c2cccc(Cl)c2)ns1` came in with a melting point of 83 to 84.5 °C.

As for `O=C(c1ccc(Cl)cc1)c1nccs1`, the melting point fell in the range of 101 to 103 °C.

As to `CCOC(=O)c1cc(NC(=O)C(N)Cc2ccc(Cl)c(Cl)c2)c[nH]1` (stereo not given), the melting point was in the range of 134 to 136 °C.

Compound `CCOC(C)O[C@H]1C(=O)N(C(=O)Nc2ccccc2)[C@H]1c1ccccc1` (stereo not given in full) gave a melting point of 152 to 155 °C.

For the compound `CN1CCCC(C2=C(C#N)C(c3cccc(C#N)c3Br)c3c[nH]nc3N2)C1` (stereo not given), the melting point is 174 °C.

Take `O=C(O)c1ccc(-c2ccoc2)s1`: the melting point came to 147 °C.

Regarding `CC(=O)C1=CCC2C3CCC4=CC(=O)CCC4(C)C3(F)C(=O)CC12C` (stereo not given), the melting point was in the range of 208 to 211 °C.

Take `Clc1ccc(C2CCN3c4ccccc4C4=NCCN4C23)cc1` (stereo not given): the melting point is 158 to 160 °C.

`CC(Cc1ccc(OCc2ccncc2)cc1)NCC(O)c1cccc(C(F)(F)F)c1` (stereo not given) yielded a melting point of 83 to 90 °C.

Take `CC(C)c1nn(-c2ccc(C(F)(F)F)cn2)cc1CCCCOc1cc(CCC(=O)O)n(-c2ccccc2)n1`: the melting point was in the range of 137 to 138 °C.

`O=C(NCCO)c1cccc(-c2ccc(F)c3cc(Cc4cccc(C(F)(F)F)c4)oc23)c1` yielded a melting point of 159 to 160 °C.

In the case of `CCOC(=O)c1cc(NC(C)=O)c(=O)[nH]c1C(=O)OCC`, the melting point is 149 to 151 °C.

Consider `CN(C)c1cccc2c(S(=O)(=O)Nc3ccc(Br)nc3)cccc12`, for which the melting point lay in the range of 164 to 165 °C.

Take `CC(CC1=C(c2cccc(O)c2)CCCNC1=O)N1CCCCC1` (stereo not given): the melting point lay within 218 to 220 °C.

Compound `CCCCCCCCc1cccc(CCC(N)(CO)CO)c1` showed a melting point of 89 to 92 °C.

On to `CCCCC1(O)c2cc(NC(=O)CC(C)(C)C)c(C)c(C)c2OC1(C)C` (stereo not given), for which the melting point was 161 to 162 °C.

For the compound `CN(C)Cc1ccc(C(=O)CCC(=O)N2CCN(c3ccc(N4C[C@H](CNC(=S)C5CC5)OC4=O)cc3F)CC2)cc1`, the melting point fell in the range of 174 to 175 °C.

For `CCOC(=O)/C=C/c1cn(Cc2ccc(OCc3ccccc3)cc2)cc1-c1ccccc1`, the melting point is 111 to 112 °C.

In turn, `CCc1cc(O)cc2cc(-c3ccc(O)cc3)oc12` showed a melting point of 218 to 220 °C.

`O=C(NCCCCCCCCc1ccccc1)c1cc(-c2cccc(C(F)(F)F)c2)cc(-c2cccc(C(F)(F)F)c2OCCCCc2nnn[nH]2)c1` gave a melting point of 145 to 151 °C.

In the case of `CCCCN1CCC(O)(c2cccc(C(F)(F)F)c2F)CC1`, the melting point is 138 °C.

For `CNC(=NS(C)(=O)=O)NCCCCc1nc(NC(N)=NCC(F)(F)F)sc1C`, the melting point was 165 to 166 °C.

As a reminder, the melting point is the temperature, or range, at which the solid turns liquid.
